The source made the active and inactive calls.
Tests used:
[1] = target: Intestinal-type alkaline phosphatase (Homo sapiens, UniProt P09923); experiment: human intestinal alkaline phosphatase activators, dose response, biochemical, luminescence, uHTS hits (AID 463120); type: functional
[2] = target: T1, Sentrin-specific protease 1 (Homo sapiens, UniProt Q9P0U3); experiment: potency of human SENP1 inhibitors, dose response, biochemical, kinetic FRET (AID 651697); type: functional; conditions: read-out: IC50_Mean
T1 sequence (Q9P0U3 whole entry): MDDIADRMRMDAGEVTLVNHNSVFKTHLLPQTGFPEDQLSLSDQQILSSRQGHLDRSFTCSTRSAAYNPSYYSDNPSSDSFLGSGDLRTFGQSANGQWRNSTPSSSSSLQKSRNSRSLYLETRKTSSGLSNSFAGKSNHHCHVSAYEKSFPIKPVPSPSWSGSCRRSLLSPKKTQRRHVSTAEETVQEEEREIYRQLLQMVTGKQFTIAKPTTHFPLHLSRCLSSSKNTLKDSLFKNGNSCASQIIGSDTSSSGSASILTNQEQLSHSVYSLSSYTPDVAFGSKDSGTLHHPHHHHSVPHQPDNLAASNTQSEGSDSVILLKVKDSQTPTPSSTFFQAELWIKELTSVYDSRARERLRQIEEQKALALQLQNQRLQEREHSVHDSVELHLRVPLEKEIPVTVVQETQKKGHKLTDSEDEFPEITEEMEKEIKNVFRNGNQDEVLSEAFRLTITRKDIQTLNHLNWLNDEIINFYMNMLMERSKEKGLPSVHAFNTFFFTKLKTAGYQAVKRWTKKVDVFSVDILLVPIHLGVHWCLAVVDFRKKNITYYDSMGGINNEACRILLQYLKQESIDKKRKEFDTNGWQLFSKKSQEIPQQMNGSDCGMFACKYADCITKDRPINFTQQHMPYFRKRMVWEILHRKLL

[3] = target: T1, Sentrin-specific protease 1; experiment: Dose response confirmation of small molecule inhibitors of the catalytic domain of the SUMO protease, SENP1 in a FRET assay.; type: functional; conditions: read-out: IC50_Mean
[4] = target: T2, Kappa-type opioid receptor (Homo sapiens, UniProt P41145); experiment: SAR analysis of small molecule antagonists of the kappa opioid receptor via a luminescent beta-arrestin assay - Set 4. [Related pubchem assays (depositor defined):AID1777, AID1778, AID1785, AID1786, AID1966, AID2133, AID2136, AID2285]; type: functional
T2 sequence (P41145 whole entry): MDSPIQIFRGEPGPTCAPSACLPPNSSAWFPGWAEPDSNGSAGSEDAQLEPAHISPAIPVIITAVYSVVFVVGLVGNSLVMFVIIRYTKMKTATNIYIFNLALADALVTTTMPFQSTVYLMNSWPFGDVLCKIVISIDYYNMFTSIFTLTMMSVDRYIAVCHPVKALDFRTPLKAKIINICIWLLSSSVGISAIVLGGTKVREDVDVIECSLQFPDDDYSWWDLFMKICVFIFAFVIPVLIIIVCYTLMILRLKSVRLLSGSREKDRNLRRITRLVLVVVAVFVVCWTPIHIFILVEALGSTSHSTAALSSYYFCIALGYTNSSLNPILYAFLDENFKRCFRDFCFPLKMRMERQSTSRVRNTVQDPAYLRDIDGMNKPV

[5] = target: T2, Kappa-type opioid receptor; experiment: SAR analysis of small molecule antagonists of the kappa opioid receptor via a luminescent beta-arrestin assay - Set 5. [Related pubchem assays (depositor defined):AID1778, AID1785]; type: functional
[6] = target: Voltage-dependent T-type calcium channel subunit alpha-1H (Homo sapiens, UniProt O95180); experiment: Cav3.2 T-type channel inhibitors, synthesized analogs, SAR follow-up, cell-based, synthetic library set 2, HEK293 HH8, Fluo-4 (AID 493023); type: functional
[7] = target: T3, 5-hydroxytryptamine receptor 1A (Homo sapiens, UniProt P08908); type: functional
T3 sequence (P08908 whole entry): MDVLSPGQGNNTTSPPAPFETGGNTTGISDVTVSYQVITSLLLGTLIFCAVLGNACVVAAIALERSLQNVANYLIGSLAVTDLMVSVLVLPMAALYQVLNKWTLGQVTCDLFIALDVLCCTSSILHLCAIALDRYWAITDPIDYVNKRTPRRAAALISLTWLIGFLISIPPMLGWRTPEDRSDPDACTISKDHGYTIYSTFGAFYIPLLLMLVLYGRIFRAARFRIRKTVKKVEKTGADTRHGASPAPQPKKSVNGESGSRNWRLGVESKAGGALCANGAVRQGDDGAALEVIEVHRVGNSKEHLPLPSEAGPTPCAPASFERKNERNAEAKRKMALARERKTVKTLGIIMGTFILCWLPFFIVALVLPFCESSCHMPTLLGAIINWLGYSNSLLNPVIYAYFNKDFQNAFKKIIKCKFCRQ

[8] = target: Sphingosine 1-phosphate receptor 2 (Homo sapiens, UniProt O95136); experiment: Dose Response Cell Based Assay for Agonists of the S1P2 Receptor. [Related pubchem assays: 729, 736, 843 ]; type: functional
Sphingosine 1-phosphate receptor 2, sequence (O95136 whole entry): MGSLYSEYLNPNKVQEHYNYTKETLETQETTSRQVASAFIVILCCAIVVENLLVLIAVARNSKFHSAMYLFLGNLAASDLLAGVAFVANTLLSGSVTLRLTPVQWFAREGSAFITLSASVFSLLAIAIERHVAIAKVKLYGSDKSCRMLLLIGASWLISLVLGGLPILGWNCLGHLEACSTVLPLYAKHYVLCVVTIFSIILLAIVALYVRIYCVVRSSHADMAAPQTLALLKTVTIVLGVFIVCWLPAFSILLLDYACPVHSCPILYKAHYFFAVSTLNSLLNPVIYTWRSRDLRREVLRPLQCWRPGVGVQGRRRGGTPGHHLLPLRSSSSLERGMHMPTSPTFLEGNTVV

[9] = target: Sphingosine 1-phosphate receptor 1 (Homo sapiens, UniProt P21453); experiment: Fluorescence-based counterscreen assay for S1P4 agonists: Cell-based dose response high throughput screening assay to identify agonists of the Sphingosine 1-Phosphate Receptor 1 (S1P1). [Related pubchem assays (depositor defined):AID1509, AID1523, AID1801, AID463107, AID463118, AID463119, AID463122, AID463123, AID463129, AID463225, AID504400, AID504460]; type: functional
Sphingosine 1-phosphate receptor 1, sequence (P21453 whole entry): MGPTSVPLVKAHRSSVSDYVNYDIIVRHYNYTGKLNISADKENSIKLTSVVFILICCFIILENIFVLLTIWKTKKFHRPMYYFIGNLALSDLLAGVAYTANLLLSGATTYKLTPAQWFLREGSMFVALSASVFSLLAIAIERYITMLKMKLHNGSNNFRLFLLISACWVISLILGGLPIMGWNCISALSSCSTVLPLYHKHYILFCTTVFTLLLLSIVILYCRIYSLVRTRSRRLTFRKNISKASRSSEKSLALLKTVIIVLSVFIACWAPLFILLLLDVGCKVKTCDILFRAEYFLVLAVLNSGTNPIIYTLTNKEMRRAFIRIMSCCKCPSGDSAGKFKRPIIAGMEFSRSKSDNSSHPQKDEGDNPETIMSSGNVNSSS

[10] = target: T4, Sphingosine 1-phosphate receptor 4 (Homo sapiens, UniProt O95977); experiment: Fluorescence dose response cell-based high throughput screening assay for agonists of the Sphingosine 1-Phosphate Receptor 4 (S1P4). [Related pubchem assays: 1509 (Primary screen.), 1523 (Confirmation screen in triplicates.)]; type: functional
T4 sequence (O95977 whole entry): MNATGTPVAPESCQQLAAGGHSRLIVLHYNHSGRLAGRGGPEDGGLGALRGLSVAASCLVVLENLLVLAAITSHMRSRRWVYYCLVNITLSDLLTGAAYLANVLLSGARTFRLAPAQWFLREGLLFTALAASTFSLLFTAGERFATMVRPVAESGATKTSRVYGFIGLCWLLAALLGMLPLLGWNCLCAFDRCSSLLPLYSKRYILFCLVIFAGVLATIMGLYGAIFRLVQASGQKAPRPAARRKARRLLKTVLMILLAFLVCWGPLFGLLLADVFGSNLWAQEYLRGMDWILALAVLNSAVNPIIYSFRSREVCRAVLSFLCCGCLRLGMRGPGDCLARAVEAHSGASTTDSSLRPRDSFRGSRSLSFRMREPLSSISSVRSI

SUMO-activating enzyme [11] = target: T5, SUMO-activating enzyme (Homo sapiens, UniProt Q9UBT2); experiment: SUMOylation inhibitor hit validation, confirmation, SUMOylation inhibitor project, biochemical, AlphaScreen (AID 2018); type: functional
T5 sequence (Q9UBE0 whole entry): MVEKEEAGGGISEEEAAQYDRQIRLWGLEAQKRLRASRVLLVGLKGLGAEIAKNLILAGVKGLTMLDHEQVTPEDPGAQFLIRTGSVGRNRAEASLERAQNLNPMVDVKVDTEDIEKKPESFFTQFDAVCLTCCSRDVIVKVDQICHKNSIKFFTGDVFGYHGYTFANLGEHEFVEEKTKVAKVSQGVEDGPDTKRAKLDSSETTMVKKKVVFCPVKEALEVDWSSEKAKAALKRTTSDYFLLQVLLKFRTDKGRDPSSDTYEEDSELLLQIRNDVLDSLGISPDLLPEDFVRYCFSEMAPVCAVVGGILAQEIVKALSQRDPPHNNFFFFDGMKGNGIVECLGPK
T5 sequence (Q9UBT2 whole entry): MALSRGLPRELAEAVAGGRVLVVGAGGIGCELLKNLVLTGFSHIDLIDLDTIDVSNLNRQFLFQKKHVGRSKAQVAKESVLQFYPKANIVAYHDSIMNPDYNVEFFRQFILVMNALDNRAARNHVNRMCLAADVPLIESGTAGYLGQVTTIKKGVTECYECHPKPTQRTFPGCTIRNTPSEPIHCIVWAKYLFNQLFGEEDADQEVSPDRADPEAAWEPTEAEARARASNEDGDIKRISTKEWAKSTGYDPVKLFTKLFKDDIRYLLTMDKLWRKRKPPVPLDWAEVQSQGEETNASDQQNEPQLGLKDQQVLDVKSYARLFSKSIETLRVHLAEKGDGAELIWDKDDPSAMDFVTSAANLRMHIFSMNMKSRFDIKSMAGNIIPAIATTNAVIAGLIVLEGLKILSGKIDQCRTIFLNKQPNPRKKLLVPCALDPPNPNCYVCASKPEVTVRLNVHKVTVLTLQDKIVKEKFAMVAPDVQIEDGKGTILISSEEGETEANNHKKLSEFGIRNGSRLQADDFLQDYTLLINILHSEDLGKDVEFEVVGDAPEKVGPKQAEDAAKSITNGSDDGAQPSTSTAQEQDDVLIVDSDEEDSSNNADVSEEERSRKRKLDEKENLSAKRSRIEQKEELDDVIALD

SUMO-activating enzyme [12] = target: T5, SUMO-activating enzyme; experiment: inhibitors of in vitro SUMOylation cascade, primary screen, biochemical, HTRF, uHTS (AID 2006); type: protein-complex assay
[13] = target: T6, Tyrosine-protein phosphatase non-receptor type 12 (Homo sapiens, UniProt Q05209); experiment: SAR Selectivity Analysis of small molecule inhibitors of PEST using pCAP in a fluorescence assay. [Related pubchem assays (depositor defined):AID1779, AID1784, AID2135]; type: functional
T6 sequence (Q05209 whole entry): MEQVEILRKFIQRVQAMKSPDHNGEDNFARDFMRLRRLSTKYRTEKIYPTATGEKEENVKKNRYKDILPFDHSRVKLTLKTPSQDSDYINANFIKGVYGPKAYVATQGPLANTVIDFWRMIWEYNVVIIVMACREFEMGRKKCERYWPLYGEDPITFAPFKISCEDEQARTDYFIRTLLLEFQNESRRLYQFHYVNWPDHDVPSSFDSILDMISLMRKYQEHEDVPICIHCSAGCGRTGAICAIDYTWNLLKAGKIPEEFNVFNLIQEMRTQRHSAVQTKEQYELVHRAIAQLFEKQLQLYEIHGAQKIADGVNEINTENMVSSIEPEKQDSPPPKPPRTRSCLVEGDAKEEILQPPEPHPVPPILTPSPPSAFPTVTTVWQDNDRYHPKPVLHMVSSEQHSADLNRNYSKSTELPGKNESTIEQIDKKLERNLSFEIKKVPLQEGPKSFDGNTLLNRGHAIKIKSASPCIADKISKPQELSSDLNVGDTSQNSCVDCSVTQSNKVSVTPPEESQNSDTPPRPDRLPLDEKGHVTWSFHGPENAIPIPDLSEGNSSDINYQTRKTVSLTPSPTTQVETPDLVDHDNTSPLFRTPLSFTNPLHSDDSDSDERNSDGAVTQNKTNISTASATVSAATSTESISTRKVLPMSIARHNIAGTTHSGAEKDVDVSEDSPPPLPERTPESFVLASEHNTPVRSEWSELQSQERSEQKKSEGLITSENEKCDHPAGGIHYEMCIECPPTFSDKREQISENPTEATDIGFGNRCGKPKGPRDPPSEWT

[14] = target: T7, Tyrosine-protein phosphatase non-receptor type 22 (Homo sapiens, UniProt Q9Y2R2); experiment: SAR LYP1 Fluorescent Assay using pCAP substrate for In Vitro dose response studies - Set 2. [Related pubchem assays (depositor defined):AID1779, AID1784, AID2135, AID449727]; type: functional
T7 sequence (Q9Y2R2 whole entry): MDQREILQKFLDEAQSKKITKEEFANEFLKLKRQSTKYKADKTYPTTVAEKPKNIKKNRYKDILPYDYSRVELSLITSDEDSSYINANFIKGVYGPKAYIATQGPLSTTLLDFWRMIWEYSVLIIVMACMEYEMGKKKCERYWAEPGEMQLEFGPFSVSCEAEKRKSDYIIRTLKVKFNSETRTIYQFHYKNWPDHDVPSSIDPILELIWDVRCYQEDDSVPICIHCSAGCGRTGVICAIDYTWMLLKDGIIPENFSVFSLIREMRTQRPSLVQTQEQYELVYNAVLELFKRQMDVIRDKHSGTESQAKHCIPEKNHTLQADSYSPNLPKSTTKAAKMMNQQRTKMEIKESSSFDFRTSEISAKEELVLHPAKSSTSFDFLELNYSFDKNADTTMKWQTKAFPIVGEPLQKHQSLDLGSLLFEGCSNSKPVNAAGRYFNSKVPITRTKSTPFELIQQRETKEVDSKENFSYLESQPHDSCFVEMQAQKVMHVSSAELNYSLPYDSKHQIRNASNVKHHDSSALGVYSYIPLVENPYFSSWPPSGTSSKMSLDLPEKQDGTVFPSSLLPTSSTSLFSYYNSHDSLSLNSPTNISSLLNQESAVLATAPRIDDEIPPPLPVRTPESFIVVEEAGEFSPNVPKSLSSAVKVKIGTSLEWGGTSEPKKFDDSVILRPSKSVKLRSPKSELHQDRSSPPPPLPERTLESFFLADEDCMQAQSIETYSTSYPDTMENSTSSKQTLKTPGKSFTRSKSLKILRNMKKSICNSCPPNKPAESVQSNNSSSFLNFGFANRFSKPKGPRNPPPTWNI

[15] = target: T7, Tyrosine-protein phosphatase non-receptor type 22; experiment: SAR LYP1 Fluorescent Assay using OMFP substrate for In Vitro dose response studies - Set 3. [Related pubchem assays (depositor defined):AID1779, AID1784, AID2140, AID2686]; type: functional
[16] = target: T8, Small ubiquitin-related modifier 1 (Homo sapiens, UniProt P63165); experiment: inhibitors of SUMO1 partner interactions, dose response, biochemical, FRET (AID 624383); type: functional; conditions: read-out: IC50_Mean
T8 sequence (P63165 whole entry): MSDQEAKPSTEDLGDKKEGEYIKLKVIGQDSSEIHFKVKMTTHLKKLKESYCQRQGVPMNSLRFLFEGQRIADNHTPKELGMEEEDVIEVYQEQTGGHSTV

[17] = target: T8, Small ubiquitin-related modifier 1; experiment: inhibitors of SUMO1 peptide binding, dose response, biochemical, fluorescence polarization, uHTS hits (AID 624382); type: functional; conditions: read-out: IC50_Mean
[18] = target: T9, Tyrosine-protein phosphatase non-receptor type 7 (Homo sapiens, UniProt P35236); experiment: HePTP (PTPN7) phosphatase inhibitor potency, SAR follow-up, biochemical, set 2 (AID 449736); type: functional
T9 sequence (P35236 whole entry): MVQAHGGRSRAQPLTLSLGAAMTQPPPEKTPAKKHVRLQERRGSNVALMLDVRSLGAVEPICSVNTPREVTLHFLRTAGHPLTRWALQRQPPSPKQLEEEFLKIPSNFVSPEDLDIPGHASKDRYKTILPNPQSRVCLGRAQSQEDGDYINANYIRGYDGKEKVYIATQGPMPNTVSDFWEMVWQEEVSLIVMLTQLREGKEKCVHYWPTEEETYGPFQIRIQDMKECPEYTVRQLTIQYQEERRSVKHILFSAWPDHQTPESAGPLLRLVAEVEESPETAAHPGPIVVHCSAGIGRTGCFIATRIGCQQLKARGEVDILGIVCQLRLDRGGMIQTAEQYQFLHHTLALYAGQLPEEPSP

[19] = target: T7, Tyrosine-protein phosphatase non-receptor type 22; experiment: SAR LYP1 Fluorescent Assay using OMFP substrate for In Vitro dose response studies - Set 2. [Related pubchem assays (depositor defined):AID1779, AID1784, AID2140, AID449726, AID488869]; type: functional
[20] = target: T7, Tyrosine-protein phosphatase non-receptor type 22; experiment: LYP (PTPN22) phosphatase inhibitor potency, SAR follow-up, biochemical, pCAP fluorogenic substrate, fluorescence, set 3 (AID 449727); type: functional

Intestinal-type alkaline phosphatase, sequence (P09923 whole entry): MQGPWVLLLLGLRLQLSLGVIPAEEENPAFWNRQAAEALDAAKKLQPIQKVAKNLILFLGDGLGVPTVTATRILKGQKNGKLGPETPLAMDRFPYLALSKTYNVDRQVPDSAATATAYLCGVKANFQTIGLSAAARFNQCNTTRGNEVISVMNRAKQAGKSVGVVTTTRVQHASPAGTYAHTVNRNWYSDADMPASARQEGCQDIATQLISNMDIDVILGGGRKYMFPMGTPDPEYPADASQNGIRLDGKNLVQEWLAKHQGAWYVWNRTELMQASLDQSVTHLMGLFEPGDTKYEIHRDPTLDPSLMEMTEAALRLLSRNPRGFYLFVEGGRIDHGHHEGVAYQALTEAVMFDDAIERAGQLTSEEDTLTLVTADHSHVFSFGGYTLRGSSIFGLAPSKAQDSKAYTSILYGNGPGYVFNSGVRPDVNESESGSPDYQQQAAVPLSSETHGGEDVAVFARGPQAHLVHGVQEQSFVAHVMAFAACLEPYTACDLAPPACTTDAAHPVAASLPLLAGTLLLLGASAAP

**Q.** For `O=C(NNc1nc2c(F)cccc2s1)c1cc(=O)c2ccccc2o1`, which EC50 [1] is on record?
**A.** 10.3 µM (active)

**Q.** And the IC50 [2]?
**A.** 6.67 µM (active)

**Q.** What about the IC50 [3] of the same compound?
**A.** 7.06 µM (active)

**Q.** Which results are given for `Cc1ccc(S(=O)(=O)NCc2ccc(C(=O)NCCN(C)[C@H](C)c3ccccc3)cc2)cc1`?
**A.** IC50 [4]: 3.38 µM (active); IC50 [5]: 2.4 µM (active)

**Q.** How did the EC50 [6] turn out when `O=C(N[C@H]1CCCN(Cc2ccccc2)C1)c1cc(Cl)cc(Cl)c1` was run?
**A.** 10 µM (active)

**Q.** What does the source list for `CCOC(=O)c1cc2ccc(OC(=O)c3ccco3)cc2oc1=O`?
**A.** EC50 [7]: > 50 µM (not active); EC50 [8]: 1.99 µM (active); EC50 [9]: 2.08 µM (active); EC50 [10]: 0.785 µM (active)

**Q.** For `COc1cc(/C=C(\C#N)C(=O)Nc2cccc(C(=O)O)c2)ccc1OCc1ccc(Cl)cc1`, which IC50 (SUMO-activating enzyme [11]) is on record?
**A.** 3.61 µM (active)

**Q.** What about the IC50 (SUMO-activating enzyme [12]) of the same compound?
**A.** 17.5 µM (active)

**Q.** And the IC50 [13]?
**A.** 2.6 µM (active)

**Q.** What about the IC50 [14] of the same compound?
**A.** 6.89 µM (active)

**Q.** What about the IC50 [15] of the same compound?
**A.** 2.6 µM (active)

**Q.** And the IC50 [16]?
**A.** 13 µM (active)

**Q.** And the IC50 [17]?
**A.** > 66.6 µM (inactive)

**Q.** And the IC50 [18]?
**A.** 0.557 µM (active)

**Q.** And the IC50 [19]?
**A.** 4.78 µM (active)

**Q.** What about the IC50 [20] of the same compound?
**A.** 6.59 µM (active)
